The values that follow come from PMC10930102 (Journal of Enzyme Inhibition and Medicinal Chemistry, 2024).

Experiment [1] concerns the target T1, CYP1A2 (Homo sapiens, UniProt P05177).
T1 construct: purchased Reaction Biology Corporation; host or cells: CYP cDNA baculovirus expression systems
Description: CYP450 inhibition assay. The class given is in vitro ADME. As to conditions: human recombinant enzyme; read-out: IC50 CYP1A2.

Experiment [2] addresses T2, ALK G1269A (Homo sapiens, UniProt Q9UM73, G1269A).
T2 construct: purchased Reaction Biology Corporation
Description: ALK mutant in vitro enzymatic assay. It is filed as biochemical. The note with it: 20 μM ATP.

Experiment [3] deals with T3, c-Met (Homo sapiens, UniProt P08581).
T3 construct: purchased Reaction Biology Corporation
Briefly: RTK in vitro enzymatic assay. The note with it: 20 μM ATP. It is filed as biochemical.

Experiment [4] concerns the target T4, CYP2C19 (Homo sapiens, UniProt P33261).
T4 construct: purchased Reaction Biology Corporation; host or cells: CYP cDNA baculovirus expression systems
Briefly: CYP450 inhibition assay. It is filed as in vitro ADME. The note with it: human recombinant enzyme. As for the experimental part: Assays were performed by Reaction Biology Corporation. […] CYP assays used human recombinant CYP1A2, CYP2C9, CYP2C19, CYP2D6, and CYP3A4 expressed in CYP cDNA baculovirus expression systems. […] Substrates used were 3-cyano-7-ethoxycoumarin for CYP1A2, 2C19, and 2D6; Vivid OOMR Substrate for CYP2C9; and Vivid BOMR Substrate for CYP3A4. hERG inhibition assays involved a binding competition between the tested compounds and a fluorescently labelled compound tracer (Predictor hERG Tracer Red) for membrane-bound hERG (Predictor hERG Membrane). E-4031 served as the positive control.

In experiment [5] the target is T5, HDAC8 (Homo sapiens, UniProt Q9BY41).
T5 construct: purchased Reaction Biology Corporation; host or cells: baculovirus expression system in SF9 cells
T5 sequence (Q9BY41 1-377): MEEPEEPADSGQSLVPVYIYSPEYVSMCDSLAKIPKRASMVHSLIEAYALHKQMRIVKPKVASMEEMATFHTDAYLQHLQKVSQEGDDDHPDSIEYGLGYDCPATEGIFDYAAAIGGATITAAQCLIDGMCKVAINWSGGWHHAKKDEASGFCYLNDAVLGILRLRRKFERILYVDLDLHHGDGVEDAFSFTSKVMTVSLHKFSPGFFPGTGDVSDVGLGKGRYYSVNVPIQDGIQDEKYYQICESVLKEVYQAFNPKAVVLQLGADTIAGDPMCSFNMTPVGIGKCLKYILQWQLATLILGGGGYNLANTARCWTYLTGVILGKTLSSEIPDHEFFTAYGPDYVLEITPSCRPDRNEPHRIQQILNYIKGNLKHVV
Description: HDAC inhibition assay (fluorogenic diacylpeptide, Reaction Biology). It is filed as biochemical. As to conditions: tested once, ten-dose starting at 30 µM.

The target of experiment [6] is T6, HDAC11 (Homo sapiens, UniProt Q96DB2).
T6 construct: purchased Reaction Biology Corporation; host or cells: baculovirus expression system in SF9 cells
T6 sequence (Q96DB2 1-347): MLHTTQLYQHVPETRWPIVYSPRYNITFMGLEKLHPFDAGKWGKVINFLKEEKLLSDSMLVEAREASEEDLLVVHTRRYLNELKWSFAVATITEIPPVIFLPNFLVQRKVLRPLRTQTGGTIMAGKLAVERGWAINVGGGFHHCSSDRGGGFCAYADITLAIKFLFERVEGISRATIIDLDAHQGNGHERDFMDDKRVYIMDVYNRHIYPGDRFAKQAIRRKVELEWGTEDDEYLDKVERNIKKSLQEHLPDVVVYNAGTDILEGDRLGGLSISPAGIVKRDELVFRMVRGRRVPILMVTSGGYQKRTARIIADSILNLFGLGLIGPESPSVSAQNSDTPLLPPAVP
Description: HDAC inhibition assay (fluorogenic peptide, Reaction Biology). The class given is biochemical. The note with it: tested once, ten-dose starting at 30 µM.

Experiment [7] concerns acetylation level of α-tubulin, a substrate of HDAC6. Description: Western blot of acetylated α-tubulin in H2228 cells. The note with it: 6 h, 3b 2 µM. The class given is cell-based, human. From the text:
(§1) Figure 4. Effect of test compounds on H2228 cells. […] (A) Western blots of phosphorylated tyrosine residue 1640 on ALK as well as acetylated (Ac) α-tubulin and histone H3 with their corresponding total proteins for normalisation. GAPDH was used as a loading control. (B) Quantification of western blotting results using Image J. Error bars indicate ± S.D.E. *p-Value ≤ 0.05, **p-value ≤ 0.01, ***p-value ≤ 0.001.
Treated cells were washed three times with ice-cold phosphate-buffered saline and lysed in lysis buffer containing 100 mM Tris-HCl, 12 mM sodium deoxycholate, 12 mM sodium lauroylsarcosinate, and protease inhibitor cocktail (BioTools). Cells were heated in lysis buffer at 95 °C for 5 min and then the cell membrane was broken up by sonication (Bioruptor). Cellular debris and unbroken cells were removed by centrifugation (12,500 × g for 30 min, 4 °C). Protein concentration was determined using the bicinchoninic acid assay (Thermo). Cell extracts (20 μg) were resolved by 12% sodium dodecyl sulfate-polyacrylamide gel electrophoresis (SDS-PAGE), transferred to PVDF membranes, and probed separately with antibodies for Ac-histone H3, Ac-α-tubulin, histone H3, α-tubulin, HDAC1, HDAC6, HDAC8 and GAPDH. […] Antibody signals were detected using an enhanced chemiluminescence system.
A general note: In western blotting, separated proteins are transferred to a membrane and probed.

Experiment [8] relates to HepG2. Briefly: SRB antiproliferation assay. It is filed as cell-based. As to conditions: Homo sapiens, 48 h, read-out: Antiproliferative activity (IC50) HepG2.
For experiment [9], the target named is T7, EGFR (Homo sapiens, UniProt P00533).
T7 construct: purchased Reaction Biology Corporation
T7 sequence (P00533 25-1210): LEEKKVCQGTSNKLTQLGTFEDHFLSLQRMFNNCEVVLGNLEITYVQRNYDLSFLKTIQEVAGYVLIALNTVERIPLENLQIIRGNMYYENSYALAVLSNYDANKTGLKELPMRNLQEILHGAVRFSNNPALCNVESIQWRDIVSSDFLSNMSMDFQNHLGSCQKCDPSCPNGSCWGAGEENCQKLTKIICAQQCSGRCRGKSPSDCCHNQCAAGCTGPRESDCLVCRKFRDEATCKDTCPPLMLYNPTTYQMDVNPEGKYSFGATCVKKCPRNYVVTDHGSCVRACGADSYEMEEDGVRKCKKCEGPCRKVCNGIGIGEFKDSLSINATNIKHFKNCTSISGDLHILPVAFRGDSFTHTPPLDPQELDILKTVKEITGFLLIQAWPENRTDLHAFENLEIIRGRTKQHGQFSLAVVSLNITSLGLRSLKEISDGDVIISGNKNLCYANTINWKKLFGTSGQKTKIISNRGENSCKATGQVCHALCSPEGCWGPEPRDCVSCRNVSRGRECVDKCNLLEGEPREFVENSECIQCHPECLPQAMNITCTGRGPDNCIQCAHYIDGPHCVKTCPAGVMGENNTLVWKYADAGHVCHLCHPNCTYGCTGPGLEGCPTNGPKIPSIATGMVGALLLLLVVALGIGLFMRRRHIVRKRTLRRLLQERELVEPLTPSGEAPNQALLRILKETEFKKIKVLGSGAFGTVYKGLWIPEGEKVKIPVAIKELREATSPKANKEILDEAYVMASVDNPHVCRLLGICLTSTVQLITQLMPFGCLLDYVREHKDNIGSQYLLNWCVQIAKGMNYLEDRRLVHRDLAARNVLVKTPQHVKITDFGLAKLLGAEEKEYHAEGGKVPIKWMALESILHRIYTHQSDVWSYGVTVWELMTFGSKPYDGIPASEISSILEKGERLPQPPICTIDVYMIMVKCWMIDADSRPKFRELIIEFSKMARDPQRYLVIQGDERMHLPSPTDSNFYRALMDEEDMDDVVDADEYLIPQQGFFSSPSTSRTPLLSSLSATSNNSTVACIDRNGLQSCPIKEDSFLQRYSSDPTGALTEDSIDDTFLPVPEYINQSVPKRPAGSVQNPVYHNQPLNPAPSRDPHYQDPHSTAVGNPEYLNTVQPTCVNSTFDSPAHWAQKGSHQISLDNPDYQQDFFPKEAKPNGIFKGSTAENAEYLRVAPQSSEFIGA
Description: RTK in vitro enzymatic assay. The class given is biochemical. As to conditions: 20 μM ATP.

The target of experiment [10] is T8, VEGFR2 (Homo sapiens, UniProt P35968).
T8 construct: purchased Reaction Biology Corporation
Briefly: RTK in vitro enzymatic assay. As to conditions: 20 μM ATP. It is filed as biochemical.

For experiment [11], the target named is T9, hERG (Homo sapiens, UniProt Q12809).
T9 construct: purchased
T9 sequence (Q12809 whole entry): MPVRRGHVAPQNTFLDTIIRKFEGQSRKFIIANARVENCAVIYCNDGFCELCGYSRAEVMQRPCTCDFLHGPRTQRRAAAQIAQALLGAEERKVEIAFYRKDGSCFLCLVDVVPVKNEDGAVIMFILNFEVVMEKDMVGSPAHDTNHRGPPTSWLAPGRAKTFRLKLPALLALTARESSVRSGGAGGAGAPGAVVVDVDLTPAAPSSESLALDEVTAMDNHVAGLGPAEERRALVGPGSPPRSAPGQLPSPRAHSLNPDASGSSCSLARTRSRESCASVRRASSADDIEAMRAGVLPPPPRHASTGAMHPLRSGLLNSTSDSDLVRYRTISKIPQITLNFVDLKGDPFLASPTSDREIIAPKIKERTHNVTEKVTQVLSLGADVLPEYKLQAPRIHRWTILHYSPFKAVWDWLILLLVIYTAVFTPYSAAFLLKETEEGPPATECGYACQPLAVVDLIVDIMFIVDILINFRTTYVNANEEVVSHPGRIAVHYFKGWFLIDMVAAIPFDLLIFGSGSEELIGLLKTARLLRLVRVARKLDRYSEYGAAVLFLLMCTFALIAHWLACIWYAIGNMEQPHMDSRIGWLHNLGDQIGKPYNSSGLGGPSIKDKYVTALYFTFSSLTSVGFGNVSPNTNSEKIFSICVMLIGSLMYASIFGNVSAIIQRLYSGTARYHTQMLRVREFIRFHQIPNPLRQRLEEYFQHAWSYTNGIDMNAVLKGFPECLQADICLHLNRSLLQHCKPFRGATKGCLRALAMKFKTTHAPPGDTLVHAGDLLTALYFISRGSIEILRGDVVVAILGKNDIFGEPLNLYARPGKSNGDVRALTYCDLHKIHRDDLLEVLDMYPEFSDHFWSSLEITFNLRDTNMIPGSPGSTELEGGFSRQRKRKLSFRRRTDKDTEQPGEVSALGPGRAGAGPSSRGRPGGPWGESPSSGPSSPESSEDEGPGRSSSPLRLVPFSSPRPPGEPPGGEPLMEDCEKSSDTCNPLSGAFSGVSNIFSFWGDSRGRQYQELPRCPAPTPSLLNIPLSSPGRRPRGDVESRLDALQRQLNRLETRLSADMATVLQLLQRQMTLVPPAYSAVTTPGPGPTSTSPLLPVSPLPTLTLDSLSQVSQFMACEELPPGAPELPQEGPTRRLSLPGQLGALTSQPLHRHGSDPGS
Briefly: hERG binding competition assay (Predictor hERG Tracer Red). The note with it: binding competition with fluorescent tracer.

Experiment [12] addresses T10, ALK C1156Y (Homo sapiens, UniProt Q9UM73, C1156Y).
T10 construct: purchased Reaction Biology Corporation
Description: ALK mutant in vitro enzymatic assay. It is filed as biochemical. As to conditions: 20 μM ATP.

For experiment [13], the system named is phosphorylation level of Y1604 on ALK. Briefly: Western blot of ALK phosphorylation in H2228 cells. It is filed as cell-based, human. The note with it: 6 h, 3b 2 µM, 3c 4 µM.
Text: as §1
Treated cells were washed three times with ice-cold phosphate-buffered saline and lysed in lysis buffer containing 100 mM Tris-HCl, 12 mM sodium deoxycholate, 12 mM sodium lauroylsarcosinate, and protease inhibitor cocktail (BioTools). Cells were heated in lysis buffer at 95 °C for 5 min and then the cell membrane was broken up by sonication (Bioruptor). Cellular debris and unbroken cells were removed by centrifugation (12,500 × g for 30 min, 4 °C). Protein concentration was determined using the bicinchoninic acid assay (Thermo). Cell extracts (20 μg) were resolved by 12% sodium dodecyl sulfate-polyacrylamide gel electrophoresis (SDS-PAGE), transferred to PVDF membranes, and probed separately with antibodies for Ac-histone H3, Ac-α-tubulin, histone H3, α-tubulin, HDAC1, HDAC6, HDAC8 and GAPDH. The antibodies of GAPDH, HDAC1, and HDAC8 were purchased from ABclonal and all other antibodies were from Cell Signalling Technology. Antibody signals were detected using an enhanced chemiluminescence system.

The target in experiment [14] is T11, ALK G1202R (Homo sapiens, UniProt Q9UM73, G1202R).
T11 construct: purchased Reaction Biology Corporation
T11 sequence (Q9UM73 19-1620 G1202R): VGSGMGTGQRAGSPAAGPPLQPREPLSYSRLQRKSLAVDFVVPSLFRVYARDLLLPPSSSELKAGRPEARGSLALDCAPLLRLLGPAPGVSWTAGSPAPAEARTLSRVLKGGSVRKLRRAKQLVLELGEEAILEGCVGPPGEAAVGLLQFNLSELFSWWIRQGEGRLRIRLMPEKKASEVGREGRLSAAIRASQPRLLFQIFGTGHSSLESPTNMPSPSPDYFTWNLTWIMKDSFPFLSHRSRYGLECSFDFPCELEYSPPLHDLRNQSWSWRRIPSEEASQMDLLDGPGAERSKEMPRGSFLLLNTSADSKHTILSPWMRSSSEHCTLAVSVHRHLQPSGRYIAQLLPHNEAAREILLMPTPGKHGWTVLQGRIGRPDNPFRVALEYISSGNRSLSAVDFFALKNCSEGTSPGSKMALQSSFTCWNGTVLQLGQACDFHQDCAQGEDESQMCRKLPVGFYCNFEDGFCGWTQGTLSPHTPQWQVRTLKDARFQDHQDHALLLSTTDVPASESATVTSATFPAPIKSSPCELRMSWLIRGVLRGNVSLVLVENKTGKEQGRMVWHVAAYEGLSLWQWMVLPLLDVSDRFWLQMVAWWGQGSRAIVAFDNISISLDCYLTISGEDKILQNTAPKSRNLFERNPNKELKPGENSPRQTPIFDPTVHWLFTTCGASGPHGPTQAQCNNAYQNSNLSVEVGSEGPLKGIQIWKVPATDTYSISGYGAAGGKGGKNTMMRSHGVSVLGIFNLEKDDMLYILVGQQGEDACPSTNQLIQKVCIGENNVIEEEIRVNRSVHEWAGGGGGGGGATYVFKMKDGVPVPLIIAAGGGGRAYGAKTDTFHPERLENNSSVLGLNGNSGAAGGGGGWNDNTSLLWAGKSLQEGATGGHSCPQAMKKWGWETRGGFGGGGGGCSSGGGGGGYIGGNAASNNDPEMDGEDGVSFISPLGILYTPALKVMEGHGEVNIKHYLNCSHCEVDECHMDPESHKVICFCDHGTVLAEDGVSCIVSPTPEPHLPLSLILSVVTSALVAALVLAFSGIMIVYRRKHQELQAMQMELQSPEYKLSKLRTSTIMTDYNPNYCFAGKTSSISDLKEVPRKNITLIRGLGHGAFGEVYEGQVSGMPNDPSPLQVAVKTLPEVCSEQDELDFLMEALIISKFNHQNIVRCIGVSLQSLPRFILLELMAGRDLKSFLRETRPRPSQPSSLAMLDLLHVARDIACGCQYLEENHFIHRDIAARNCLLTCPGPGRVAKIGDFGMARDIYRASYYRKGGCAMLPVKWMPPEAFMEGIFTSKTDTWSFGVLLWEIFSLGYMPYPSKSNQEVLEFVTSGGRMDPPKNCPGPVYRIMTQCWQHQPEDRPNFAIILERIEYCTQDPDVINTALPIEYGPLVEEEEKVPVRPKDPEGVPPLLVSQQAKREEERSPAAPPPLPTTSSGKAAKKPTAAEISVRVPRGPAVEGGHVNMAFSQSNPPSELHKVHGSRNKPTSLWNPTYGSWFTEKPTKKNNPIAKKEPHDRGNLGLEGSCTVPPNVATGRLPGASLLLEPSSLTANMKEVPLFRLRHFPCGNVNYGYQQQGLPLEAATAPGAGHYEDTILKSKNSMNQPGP
Briefly: ALK mutant in vitro enzymatic assay. It is filed as biochemical. As to conditions: 20 μM ATP.

Experiment [15] addresses T12, ALK (Homo sapiens, UniProt Q9UM73).
T12 construct: purchased Reaction Biology Corporation
Description: ALK in vitro enzymatic assay (radioisotope P81 filter-binding, Reaction Biology). It is filed as biochemical. The note with it: 20 μM ATP; ten-dose IC50 mode, duplicate, average.

Experiment [16] has as its system H2228. Briefly: SRB antiproliferation assay. As to conditions: Homo sapiens, NCI-H2228, 48 h, ALK-addicted cells, read-out: Antiproliferative activity (IC50) H2228. It is filed as cell-based. Background: Sulforhodamine B stains cellular protein and so reports cell mass.
Experiment [17] addresses T13, HDAC1 (Homo sapiens, UniProt Q13547).
T13 construct: purchased Reaction Biology Corporation; host or cells: baculovirus expression system in SF9 cells
Description: HDAC inhibition assay (fluorogenic peptide, Reaction Biology). The class given is biochemical. As to conditions: tested once, ten-dose starting at 30 µM.

In experiment [18] the target is T14, ALK L1196M (Homo sapiens, UniProt Q9UM73, L1196M).
T14 construct: purchased Reaction Biology Corporation
Briefly: ALK mutant in vitro enzymatic assay. The note with it: 20 μM ATP. It is filed as biochemical.

The target of experiment [19] is T15, JAK2 (Homo sapiens, UniProt O60674).
T15 construct: purchased Reaction Biology Corporation
Briefly: RTK in vitro enzymatic assay. As to conditions: 20 μM ATP. The class given is biochemical.

A value given as a limit tells only on which side of the number the result lay.

T4 sequence (P33261 whole entry): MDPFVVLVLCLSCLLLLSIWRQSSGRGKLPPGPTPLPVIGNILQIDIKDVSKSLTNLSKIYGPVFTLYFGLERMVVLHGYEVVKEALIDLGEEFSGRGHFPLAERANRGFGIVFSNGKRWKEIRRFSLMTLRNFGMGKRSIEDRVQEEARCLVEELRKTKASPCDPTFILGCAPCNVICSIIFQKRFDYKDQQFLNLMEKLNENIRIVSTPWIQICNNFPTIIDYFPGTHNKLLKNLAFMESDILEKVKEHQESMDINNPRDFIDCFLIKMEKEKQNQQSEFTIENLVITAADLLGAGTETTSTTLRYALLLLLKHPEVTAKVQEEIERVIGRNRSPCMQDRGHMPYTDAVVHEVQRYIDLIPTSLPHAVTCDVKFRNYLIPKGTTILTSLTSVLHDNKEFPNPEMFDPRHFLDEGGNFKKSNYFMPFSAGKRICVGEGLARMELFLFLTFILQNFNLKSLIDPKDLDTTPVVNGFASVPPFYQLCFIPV
T12 sequence (Q9UM73 19-1620): as the sequence (Q9UM73 19-1620 G1202R) above, with R1184G counted along it
T2 sequence (Q9UM73 19-1620 G1269A): as the sequence (Q9UM73 19-1620 G1202R) above, with R1184G, G1251A counted along it
T1 sequence (P05177 whole entry): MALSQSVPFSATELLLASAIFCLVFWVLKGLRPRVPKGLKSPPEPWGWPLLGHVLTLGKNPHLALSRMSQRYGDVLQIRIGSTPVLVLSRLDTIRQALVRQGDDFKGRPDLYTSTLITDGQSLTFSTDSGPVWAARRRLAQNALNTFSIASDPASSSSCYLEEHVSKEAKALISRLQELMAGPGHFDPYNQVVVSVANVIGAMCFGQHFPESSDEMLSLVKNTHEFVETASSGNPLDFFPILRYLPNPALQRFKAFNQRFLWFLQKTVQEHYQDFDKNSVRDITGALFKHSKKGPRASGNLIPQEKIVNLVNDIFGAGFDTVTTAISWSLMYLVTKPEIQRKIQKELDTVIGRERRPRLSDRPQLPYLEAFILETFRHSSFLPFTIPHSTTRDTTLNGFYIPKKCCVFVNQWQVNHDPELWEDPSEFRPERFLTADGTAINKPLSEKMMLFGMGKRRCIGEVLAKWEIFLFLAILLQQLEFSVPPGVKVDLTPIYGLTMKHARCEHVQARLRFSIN
T10 sequence (Q9UM73 19-1620 C1156Y): as the sequence (Q9UM73 19-1620 G1202R) above, with C1138Y, R1184G counted along it

As for `CC(C)NC(=O)C1CCC(n2c(=NC(=O)c3ccccc3)[nH]c3cc(C=CC(=O)NO)ccc32)CC1` [Compound 3b, (E)-N-(5-((E)-3-(Hydroxyamino)-3-oxoprop-1-en-1-yl)-1-((1S,4S)-4-(isopropylcarbamoyl)cyclohexyl)-1H-benzo[d]imidazol-2(3H)-ylidene)benzamide], the 50% inhibitory concentration (IC50) (as a rule, the concentration at which inhibition is half-maximal) in [1] is 12.7 µM; in experiment [2], 50 nM; in [3] it was over 10 µM; in experiment [4], 7.86 µM; in experiment [5], 1690 nM; in experiment [6], 16.6 µM. Besides, the IC50 in [8] was 590 ± 90 nM; in [9], over 10 µM; in experiment [10], over 10 µM; in experiment [11], over 10 µM; in experiment [12] it was 9.7 nM; in experiment [14], 51 nM. Besides, the IC50 was 16 nM in experiment [15]; 440 ± 60 nM in experiment [16]; 10.8 µM in experiment [17]; 4.9 nM in experiment [18]; over 10 µM in experiment [19]. Moreover, the “acetylation level of α-tubulin” value in experiment [7] is given as “obviously elevated”. Further, the “IC50 hERG” value in experiment [11] is given as “no inhibitory affect”. The “phosphorylation level of Y1604 on ALK” value in experiment [13] is “significantly decreased”.
